We go through 16 compounds from ChEMBL document CHEMBL1142849, “Synthesis and in vitro and in vivo antimycobacterial activity of isonicotinoyl hydrazones” (Bioorg Med Chem Lett, 2005).

Converted amounts (≈) assume the structure as drawn.

The term MIC denotes the lowest concentration found to suppress growth. For orientation: IC50 means the concentration that inhibits the measured activity by half. A lower IC50 goes with greater potency in that assay.

The subject of assay [1] is Mycobacterium tuberculosis. The assay is described as follows: In vitro minimal inhibitory concentration against Mycobacterium tuberculosis [H37Rv stain]. The format is functional.
Assay [2] relates to Mycobacterium tuberculosis. The assay is described as follows: In vitro inhibitory concentration against Mycobacterium tuberculosis [H37Rv stain]. The format is functional, organism-based.
The test system of assay [3] is Mycobacterium tuberculosis. The assay is described as follows: Log CFU in lungs of mice infected with H37Rv stain of Mycobacterium tuberculosis after administration at 25 mg/Kg. The assay is classed as functional, Lung.

On to `C/C(=N/NC(=O)c1ccncc1)c1cccc(CN2CCCC2)c1O`, for which the minimal inhibitory concentration (MIC) in assay [1] came out at 4.61 µM (≈ 1.56 µg/mL). Moreover, in assay [2], the IC50 is > 18.5 µM.
The compound `C/C(=N/NC(=O)c1ccncc1)c1cccc(CN2CCN(c3ccccn3)CC2)c1O` came in with an MIC in assay [1] of 0.9 µM (≈ 0.387 µg/mL). For the same compound, the IC50 in assay [2] was > 14.5 µM.
In assay [1], `C/C(=N/NC(=O)c1ccncc1)c1cccc(CN(C)C)c1O` yielded an MIC of 2.49 µM (≈ 0.778 µg/mL). The IC50 in assay [2] was > 20 µM.
For the compound `C/C(=N/NC(=O)c1ccncc1)c1cccc(CN2CCN(C)CC2)c1O`, in assay [1], the MIC worked out at 8.61 µM (≈ 3.16 µg/mL). For the same compound, in assay [2], the IC50 is > 17.2 µM.
On to `CCCCN(CCCC)Cc1cccc(/C(C)=N\NC(=O)c2ccncc2)c1O`, for which, in assay [1], the MIC came to 3.93 µM (≈ 1.56 µg/mL). Moreover, the half-maximal inhibitory concentration (IC50) in assay [2] is > 15.8 µM.
Compound `C/C(=N/NC(=O)c1ccncc1)c1cccc(CN2CCN(c3ccc(F)cc3)CC2)c1O` gave an MIC in assay [1] of 0.87 µM (≈ 0.389 µg/mL). Further, in assay [2], the IC50 is > 14 µM.
Take `C/C(=N/NC(=O)c1ccncc1)c1cccc(CN(Cc2ccccc2)Cc2ccccc2)c1O`: inhibition of growth in assay [1] (MIC) required 3.36 µM (≈ 1.56 µg/mL). Moreover, the IC50 in assay [2] is > 13.5 µM.
In assay [1], `C/C(=N/NC(=O)c1ccncc1)c1cccc(CN2CCCCC2)c1O` registered an MIC of 4.43 µM (≈ 1.56 µg/mL). Besides, the IC50 in assay [2] is > 17.7 µM.
`C/C(=N/NC(=O)c1ccncc1)c1cccc(CN(c2ccccc2)c2ccccc2)c1O` displayed an MIC in assay [1] of 3.57 µM (≈ 1.56 µg/mL). The IC50 in assay [2] was > 14.3 µM.
Regarding `C/C(=N/NC(=O)c1ccncc1)c1cccc(CN2CCN(Cc3ccccc3)CC2)c1O`, the MIC in assay [1] was 0.88 µM (≈ 0.39 µg/mL). Moreover, in assay [2], the concentration for half-maximal inhibition (IC50) was > 14.1 µM.
For `C/C(=N/NC(=O)c1ccncc1)c1cccc(CN2CCOCC2)c1O`, in assay [1], the MIC amounted to 2.2 µM (≈ 0.78 µg/mL). Further, the IC50 in assay [2] is > 17.6 µM.
For `CCN(CC)Cc1cccc(/C(C)=N\NC(=O)c2ccncc2)c1O`, 2.29 µM (≈ 0.78 µg/mL) was the least that counted as inhibitory in assay [1] (MIC). Besides, the IC50 in assay [2] was > 18.4 µM.
For the compound `CCn1cc(C(=O)O)c(=O)c2cc(F)c(N3CCN(Cc4cccc(/C(C)=N\NC(=O)c5ccncc5)c4O)C(C)C3)c(F)c21` (centres undefined), in assay [1], the MIC came to 1.26 µM (≈ 0.779 µg/mL). For the same compound, in assay [2], the IC50 is > 10.1 µM.
In turn, `NNC(=O)c1ccncc1` [ISONIAZID] returned an MIC in assay [1] of 2.04 µM (≈ 0.28 µg/mL). In assay [2], the IC50 was > 45.6 µM. In addition, the “Log CFU” value in assay [3] stood at 6.38.
For the compound `C/C(=N/NC(=O)c1ccncc1)c1cccc(CN2CCNCC2)c1O`, the MIC in assay [1] came out at 0.56 µM (≈ 0.198 µg/mL). Moreover, the IC50 in assay [2] was > 17.7 µM. Moreover, the “Log CFU” value in assay [3] came out at 6.08.
`C/C(=N/NC(=O)c1ccncc1)c1cccc(CN2CCN(c3cc4c(cc3F)c(=O)c(C(=O)O)cn4C3CC3)CC2)c1O`: the lowest concentration to inhibit growth in assay [1] (MIC) was 1.3 µM (≈ 0.778 µg/mL). In assay [2], the IC50 was > 10.4 µM.
